{
  "source": "patent US20260216168A1",
  "about": "“MODULATION OF PD-1 SIGNALING FOR TREATMENT OF DISEASES” (Wuhan University, priority 2023, published 2026)",
  "key": {"[1]": {"system": "tumor", "assay": "PC or rosuvastatin calcium alone or with IL-2 on tumor growth in mice", "assay_type": "in vivo, mouse", "source_text": "We further tested the anti-tumor effects of PC in mouse MC38 colorectal carcinoma and B16F10 melanoma models."}, "[2]": {"system": "MC38 colorectal carcinoma and B16F10 melanoma", "assay": "Pitavastatin calcium (PC) therapy in C57BL/6j mice, MC38 and B16F10 tumor models", "assay_type": "in vivo, mouse", "conditions": "PC alone 5 mg/kg/day i.p.; MC38 and B16F10 in C57BL/6j mice; listed as PC", "procedure": "C57BL/6j mice were subcutaneously injected with 5×10^5 of MC38 or B16F10 cells. On day 3 (MC38) or 5 (B16F10) after tumor cell implantation, mice were intraperitoneally injected with control or PC (5 mg/kg/day). Tumor sizes were measured every two days by caliper. Tumor-bearing mice were euthanized on day 13 (MC38) or day 15 (B16F10). Tumor weights were measured by Analytical Balance. […] Data were analyzed using a student's unpaired t-test with GraphPad Prism 8. • (D) Effects of PC on the level of γc in TILs. TILs were isolated from the MC38 tumor tissues of FIG. 7C. TILs were stained with the indicated antibodies and analyzed by flow cytometry. […] Data were analyzed using a student's unpaired t-test with GraphPad Prism 8. […] TILs were isolated from the MC38 tumor tissues of FIG. 7C. TILs were stained with the indicated antibodies and analyzed by flow cytometry. […] C57BL/6j mice were subcutaneously injected with MC38 cells (5×10^5). […] Tumor sizes were measured every two days by caliper from day 5. […]\nPitavastatin calcium (PC) therapy in C57BL/6j mice: mice were intraperitoneally injected with control or PC (P129617, 5 mg/kg/day, dissolved in PBS, Aladdin) three (MC38 tumor) or five (B16F10 tumor) days after inoculation of tumor cells, and tumor sizes were measured every two days by caliper. […] TILs were analyzed by flow cytometry."}, "[3]": {"system": "tumor-infiltrating lymphocytes", "assay": "Flow cytometry of tumor-infiltrating lymphocytes from MC38 tumors after PC", "assay_type": "in vivo, mouse", "procedure": "(§1) C57BL/6j mice were subcutaneously injected with 5×10^5 of MC38 or B16F10 cells. On day 3 (MC38) or 5 (B16F10) after tumor cell implantation, mice were intraperitoneally injected with control or PC (5 mg/kg/day). Tumor sizes were measured every two days by caliper. Tumor-bearing mice were euthanized on day 13 (MC38) or day 15 (B16F10). Tumor weights were measured by Analytical Balance. […] Data were analyzed using a student's unpaired t-test with GraphPad Prism 8. • (D) Effects of PC on the level of γc in TILs. TILs were isolated from the MC38 tumor tissues of FIG. 7C. TILs were stained with the indicated antibodies and analyzed by flow cytometry. […] Data were analyzed using a student's unpaired t-test with GraphPad Prism 8. […] TILs were isolated from the MC38 tumor tissues of FIG. 7C. TILs were stained with the indicated antibodies and analyzed by flow cytometry. […] C57BL/6j mice were subcutaneously injected with MC38 cells (5×10^5). […] Tumor sizes were measured every two days by caliper from day 5. […] C57BL/6j mice were subcutaneously injected with MC38 cells (5×10^5). […] Mice were sacrificed when the tumor size is bigger than 15 mm of the mean tumor diameter, tumor volume exceeded 2000 mm^3, or tumor had ulcers with diameter reached 10 mm. Statistical analysis was performed using the GraphPad Prism 8 software, n=8. Kaplan-Meier survival curves and corresponding log-rank (Mantel-Cox) tests were used to evaluate the statistical differences between groups in survival studies. There is a significant difference when the P<0.05.\nCells were subjected to stain with the indicated antibodies for 30 min in 4° C. The cells were analyzed and data were acquired with BD Fortessa X-20 and FACSDiva 7 software following the exemplified gating strategy for flow cytometry analysis. The data were processed using FlowJo software.\nPitavastatin calcium (PC) therapy in C57BL/6j mice: mice were intraperitoneally injected with control or PC (P129617, 5 mg/kg/day, dissolved in PBS, Aladdin) three (MC38 tumor) or five (B16F10 tumor) days after inoculation of tumor cells, and tumor sizes were measured every two days by caliper. Tumor-bearing mice were euthanized on day 13 (MC38 tumor) or day 15 (B16F10 tumor). TILs were analyzed by flow cytometry.\nTumor tissues were separated from the mice and cut into pieces. The tumor tissues were suspended with 2 ml of tumor digestion buffer (1×HBSS buffer with 5 mg/ml collagenase II and 0.1% DNaseI) and rotated for at 37° C. for 1 h. The cell suspension was filtered using a 70-μm filter to obtain single-cell suspension. […] Cells were analyzed and data were acquired with BD Fortessa X-20 and FACSDiva 7 software following the exemplified gating strategy for flow cytometry analysis. […]"}, "[4]": {"target": "T1, MARCH5 (Homo sapiens, UniProt Q9NX47)", "T1 construct": "expressed in transfected cells; host or cells: HEK293", "T1 sequence (Q9NX47 1-278)": "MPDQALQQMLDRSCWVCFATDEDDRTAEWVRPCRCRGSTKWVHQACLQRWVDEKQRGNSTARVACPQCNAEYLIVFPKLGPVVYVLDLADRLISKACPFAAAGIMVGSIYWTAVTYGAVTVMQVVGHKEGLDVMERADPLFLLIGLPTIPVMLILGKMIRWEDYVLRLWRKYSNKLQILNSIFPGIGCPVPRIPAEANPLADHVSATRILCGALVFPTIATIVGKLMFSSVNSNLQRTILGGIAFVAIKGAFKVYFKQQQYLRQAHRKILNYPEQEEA", "assay": "MARCH5 / γc-luciferase reporter system in co-transfected HEK293 cells (screen of FDA-approved drugs)", "assay_type": "cell-based", "source_text": "Unfortunately, no pharmacological inhibitors of MARCH5 have been reported. We designed a reporter system in which HEK293 cells are co-transfected with two plasmids encoding MARCH5 and γc-luciferase fusion protein respectively. In this system, inhibition of MARCH5 by an inhibitor would result in increased luciferase activity in reporter assays.\nUsing this system, we screened a collection of Food and Drug Administration-approved drugs and identified 10 compounds that increased luciferase activity to more than 1.5-folds (Table 1). […] Pitavastatin is a unique lipophilic statin and potent inhibitor of HMG-CoA reductase with a strong effect on lowering plasma total cholesterol and triacylglycerol. Pitavastatin has also been reported to have pleiotropic beneficial effects such as suppression of inflammation, regulation of angiogenesis and osteogenesis, improvement of endothelial function and arterial stiffness."}, "[5]": {"system": "γc", "assay": "γc level by immunoblotting after PC treatment of T cells and T cell lines", "assay_type": "cell-based", "conditions": "PC 0, 0.5, 1, 2 μM, 24 h; human and mouse CD8+ T, Jurkat, HPB-ALL, CTLL2 cells; listed as PC"}, "[6]": {"system": "MARCH5-deficient Jurkat cells", "assay": "γc level by immunoblotting in control or MARCH5-deficient Jurkat cells treated with PC", "assay_type": "cell-based, human", "conditions": "PC 0, 0.5, 1 μM, 24 h, listed as PC"}, "[7]": {"system": "MC38 cells", "assay": "PC, IL-2 and anti-PD-1 therapy in C57BL/6j mice bearing MC38 tumors", "assay_type": "in vivo", "conditions": "PC 5 mg/kg, IL-2 50000 IU per mouse, anti-PD-1 100 μg per mouse, i.p.", "procedure": "as §1\nTumor size and mouse survival were measured every two days from day 5.\nFor survival studies, mice were sacrificed when the tumor size was bigger than 15 mm of the mean tumor diameter, tumor volume exceeded 2000 mm^3, or tumor had ulcers with a diameter reached 10 mm. Statistical analysis was performed using the GraphPad Prism 8 software. Kaplan-Meier survival curves and corresponding log-rank (Mantel-Cox) tests were used to evaluate the statistical differences between groups in survival studies. There is a significant difference when the P<0.05."}},
  "note": "Entries after “also recorded” stand apart in the source; their conditions may differ.",
  "data": [
    {"smiles": "O=C(O)C[C@H](O)C[C@H](O)/C=C/c1c(C2CC2)nc2ccccc2c1-c1ccc(F)cc1", "note": "[Pitavastatin calcium]", "values": [
      {"measurement": "synergistic effect with IL-2 on tumor suppression", "setting": "[1]; combined with IL-2, mice", "value": "has a synergistic effect"},
      {"measurement": "tumor growth", "setting": "[1]; statin administered alone, mice", "value": "suppressed tumor growth"},
      {"measurement": "tumor growth", "setting": "[2]", "value": "significantly suppressed tumor growth; also recorded: suppresses tumor growth; also recorded: inhibited tumor growth"},
      {"measurement": "level of γc in tumor-infiltrating lymphocytes", "setting": "[3]; MC38 tumors, PC 5 mg/kg/day i.p., listed as PC", "value": "higher level of γc; also recorded: up-regulated the level of γc in tumor-infiltrating lymphocytes"},
      {"measurement": "percentage of TIM3+ cells in infiltrated CD8+ T cells", "setting": "[3]; MC38 tumors, PC treatment", "value": "reduced the percentage of TIM3^+ cells"},
      {"measurement": "percentage of GzmB+ cells in infiltrated CD8+ T cells", "setting": "[3]; MC38 tumors, PC treatment, listed as PC", "value": "up-regulated the percentage of GzmB^+ cells; also recorded: increases tumor infiltrating CD8^+ cytotoxic T cells"},
      {"measurement": "percentages of CD8+ T, NK, CD4+ T, Treg and B cells in tumor-infiltrating lymphocytes", "setting": "[3]; after PC administration", "value": "did not show significant difference"},
      {"measurement": "Rel. Luc. Act", "setting": "[4]; HEK293 cells co-transfected with MARCH5 and γc-luciferase fusion protein, increase = MARCH5 inhibition", "value": 2.06},
      {"measurement": "luciferase activity in MARCH5-expressing versus control HEK293 cells", "setting": "[4]; confirmative experiments", "value": "specifically increased the luciferase activity in MARCH5-expressing but not control HEK293 cells"},
      {"measurement": "level of γc (immunoblotting)", "setting": "[5]", "value": "up-regulated the level of γc in a dose-dependent manner; also recorded: up-regulates the level of γc"},
      {"measurement": "γc protein level, MARCH5 dependence", "setting": "[6]", "value": "did not further increase its protein level; also recorded: MARCH5-deficiency impairs PC-induced up-regulation of γc; also recorded: up-regulated the level of γc in a MARCH5-dependent manner"},
      {"measurement": "tumor suppression by IL-2 or IL-2 plus PD-1 blocking antibody when PC is added", "setting": "[7]", "value": "significantly improved the efficacy of anti-tumor immunotherapy in mice"},
      {"measurement": "overall survival of mice treated with IL-2 or IL-2 plus PD-1 blocking antibody when PC is added", "setting": "[7]; listed as PC", "value": "significantly increased the efficacies; also recorded: promotes the survival rate of mice treated with IL-2 and PD-1 blockade"},
      {"measurement": "tumor suppression by IL-2 or IL-2 plus PD-1 blocking antibody when PC is added", "setting": "[7]; listed as PC", "value": "significantly increased the efficacies; also recorded: potentiates the anti-tumor efficacy of IL-2 and PD-1 combination; also recorded: sensitized the anti-tumor effects of IL-2 as well as its combination with PD-1 blocking antibody"}
    ]}
  ]
}
